Columns and labels:
Assay in all cases: Proliferation, CellTiter-Glo, 72 h
Assay type in all cases: cell-based
SW48 = conditions: Homo sapiens; SW48, CRC; CTNNB1 (S33Y); EGFR (G179S); β-catenin Active
Colo 205 = conditions: Homo sapiens; Colo 205, CRC; BRAF (V600E); β-catenin status N/A
Procedure: HCC cell lines were treated with DMSO or increasing concentrations of Compound 1 for 72 h. Specifically, Compound 1 at various concentrations in dimethyl sulfoxide (DMSO) was spotted via an acoustic dispenser (EDC ATS-100) into an empty 384-well plate. Compound 1 was spotted in a 10-point serial dilution fashion (3-fold dilution) in duplicate within the plate. Replicates of plates spotted with Compound 1 were made for use with different cell lines. After compound plate replication, all plates were sealed (Agilent ThermoLoc) and stored at −20° C. for up to 1 month. When ready for testing, plates were removed from the freezer, thawed, and unsealed just prior to the addition of the test cells.
Prior to testing, cells were grown and expanded in culture flasks to provide sufficient amounts of starting material. Cells were then diluted to the appropriate densities and added directly to the compound-spotted 384-well plates. […] At the time when compound was added (t0), initial cell number was assessed via a viability assay (Cell Titer-Glo) by quantifying the level of luminescence generated by ATP present in viable cells. After 72 h, cell viability of compound-treated cells was assessed via Cell Titer-Glo and luminescence measurement. The apoptotic response to Compound 1 was assessed by quantifying the activities of caspase 3 and caspase 7 (Caspase 3/7-Glo) in treated cells and DMSO control cells. […]

AGS = conditions: Homo sapiens, Gastric, CTNNB1 (G43E), KRAS (G12D), β-catenin Active

## C[C@]1(C(N)=O)CC[C@@H](n2c(Nc3c(Cl)cc(Cl)cc3Cl)nc3cnc(N[C@@H]4CCOC[C@H]4F)nc32)CC1 [Compound 1, cis-4-[2-{[(3S,4R)-3-fluorooxan-4-yl]amino}-8-(2,4,6-trichloroanilino)-9H-purin-9-yl]-1-methyl cyclohexane-1-carboxamide]
SW48
  IC50: 9 nM
Colo 205
  IC50: 36 nM
AGS
  IC50: 28 nM
